For test [1], the target named is T1, Trichoderma reesei CEL7A cellobiohydrolase I (Trichoderma reesei, UniProt P62694, INS458P/R459P).
T1 construct: made in house
The test can be described thus: PASC hydrolysis by CEL7A cellobiohydrolase I with tannic acid. Format: biochemical. On the procedure:
(§1) The inhibitory effect of tannic acid was determined on Trichoderma reesei CEL7A cellobiohydrolase 1, Trichoderma reesei CEL6A cellobiohydrolase II, Trichoderma reesei CEL7B endoglucanase 1, and Trichoderma reesei CEL5A endoglucanase II using PASC as substrate.
(§2) To quantify the inhibition, tannic acid was evaluated in the hydrolysis of PASC.

The target of test [2] is T2, Trichoderma reesei CEL6A cellobiohydrolase II (Trichoderma reesei, UniProt P07987, P359R).
T2 construct: made in house; host or cells: Fusarium venenatum
The test is described as follows: PASC hydrolysis by CEL6A cellobiohydrolase II with tannic acid. Format: biochemical. The settings on record: 1 mM tannic acid; 2 g PASC per liter, over 4 hours. As for the experimental part: as §1

Test [3] addresses T3, Trichoderma reesei CEL7B endoglucanase I (Trichoderma reesei, UniProt P07981).
T3 construct: made in house; host or cells: Aspergillus oryzae JaL250
The test is described as follows: PASC hydrolysis by CEL7B endoglucanase I with tannic acid. Format: biochemical. On the procedure:
as §1, §2

Test [4] concerns the target T4, Trichoderma reesei CEL5A endoglucanase II (Trichoderma reesei, UniProt P07982).
T4 construct: made in house
The test is described as follows: PASC hydrolysis by CEL5A endoglucanase II with tannic acid. The test is classed as biochemical. As for the experimental part: as §1, §2

Test [5] deals with T5, Cellulolytic Enzyme Composition #2.
T5 construct: Dixon plot linear regression intercept (1/Rate); other: PCS; rate from hydrolysis difference (%) at 0 and 5 hours; rate from hydrolysis difference (%); Ki (x-intercept of Dixon plot); other: PCS hydrolysis, Cellulolytic Enzyme Composition #2; OPC flavonol-equivalent; Ki expressed as galloyl constituents; oth; fused on or other part: In one component the Humicola insolens endoglucanase V (CEL45A) core is fused in front of the A. oryzae beta-glucosidase
The test can be described thus: PCS hydrolysis by Cellulolytic Enzyme Composition #2 with added compounds. The test is classed as biochemical, Trichoderma reesei. The settings on record: for Ki: PCS hydrolysis, Cellulolytic Enzyme Composition #2. As for the experimental part:
(§3) Corn stover was pretreated at the U.S. Department of Energy National Renewable Energy Laboratory (NREL), […], Colo., USA, using dilute sulfuric acid. The following conditions were used for the pretreatment: 1.4 wt % sulfuric acid at 195° C. for 4.5 minutes. According to limit digestion with excess cellulase enzymes, the water-insoluble solids in the pretreated corn stover (PCS) contained 59.5% cellulose. Prior to use, the PCS was washed with a large volume of deionized water until soluble acid and sugars were removed. The dry weight of the water-washed PCS was 19.16%.
(§4) The effect of a mixture of tannic acid, ellagic acid, epicatechin, and six lignin constituent compounds (4-hydroxyl-2-methylbenzoic acid, vanillin, coniferyl alcohol, coniferyl aldehyde, ferulic acid, and syringaldehyde) was determined on the hydrolysis of PCS by Cellulolytic Enzyme Composition #1 or Cellulolytic Enzyme Composition #2. […] Cellulolytic Enzyme Composition #1 or Cellulolytic Enzyme Composition #2 was added at 0.25 g per liter. Reactions without the addition of the compounds served as controls. The capped tubes were incubated at 50° C. in an INNOVA® 4080 incubator shaker (New Brunswick Scientific Co., Inc., Edison, N.J., USA) at 150 rpm.
(§5) Aliquots of the suspensions, sampled over time, were filtered by centrifugation using a 0.45 μm MULTISCREEN® HV membrane (Millipore, Billerica, Mass., USA) at 2000 rpm for 15 minutes using a SORVALL® RT7 centrifuge (Thermo Fisher Scientific, Waltham, Mass., USA). When not used immediately, the filtered aliquots were frozen at −20° C. Sugar concentrations of the samples diluted in 0.005 M H2SO4 were measured after elution by 0.005 M H2SO4 at a flow rate of 0.4 ml/minute from a 4.6×250 mm AMINEX® HPX-87H column (Bio-Rad, Hercules, Calif., USA) at 65° C. with quantitation by integration of glucose and cellobiose using refractive index detection (CHEMSTATION®, AGILENT® 1100 HPLC, Agilent Technologies, Santa Clara, Calif., USA) calibrated with standards of glucose and cellobiose. The resultant equivalents were used to calculate the percentage of cellulose conversion for each reaction.
(§6) The degree of cellulose conversion to glucose plus cellobiose sugars (conversion, %) was calculated using the following equation:
(§7) Conversion(%)=(glucose+cellobiose×1.053)(mg/ml)×100×162/cellulose(mg/ml)×180)=(glucose+cellobiose×1.053)(mg/ml)×100/(cellulose(mg/ml)×1.111)
(§8) In this equation the factor 1.111 reflects the weight gain in converting cellulose to glucose, and the factor 1.053 reflects the weight gain in converting cellobiose to glucose. Cellulose in PCS was determined by a limit digest of PCS to release glucose and cellobiose.
(§9) Example 30 was repeated except that each compound was tested separately. […] Reactions without the addition of each compound served as controls.
(§10) The effect of OPC or flavonol on the hydrolysis of PCS by Cellulolytic Enzyme Composition #1 or Cellulolytic Enzyme Composition #2 was determined according to the procedure described in Example 30. OPC and flavonol were present at a concentration of 1 mM. Reactions without the addition of the compounds served as controls.
The effective inhibitory concentration range for tannic acid and OPC was also determined by the “mini-scale” hydrolysis described in Example 30 with Cellulolytic Enzyme Composition #2. The concentration of tannic acid ranged from 0.1 mM to 1 mM, while the concentration of OPC ranged from 0.1 mM to 10 mM. Reactions without the addition of the tannic compounds served as controls.
However, prior to the addition of Cellulolytic Enzyme Composition #2, the mixture of PCS or OPC and tannic acid was treated with Aspergillus oryzae tannase (Novozymes A/S, Bagsværd, Denmark) at 10% of the final protein level for 30 minutes. Reactions without addition of the tannic acid, OPC, or tannase served as controls.

The test system of test [6] is T6, Cellulolytic Enzyme Composition #1.
T6 construct: other: PASC hydrolysis; mean ± SD; 0.01 g enzyme; Dixon plot linear regression intercept (1/Rate); other: AVICEL; rate from hydrolysis difference (%) at 0 and 6 hours; rate from hydrolysis difference; fused on or other part: The A. oryzae beta-glucosidase is the mature chain secreted behind the Humicola insolens endoglucanase V signal peptide, which is cleaved off
The test can be described thus: PCS hydrolysis by Cellulolytic Enzyme Composition #1 with added compounds. Format: biochemical, Trichoderma reesei. As for the experimental part: as §3, §4, §5, §6, §7, §8, §9, §10
Methyl gallate and ellagic acid were compared at 10 mM to 1 mM tannic acid in the hydrolysis of PCS by Cellulolytic Enzyme Composition #1.

Setting [7] is: 1 mM tannic acid, 2 g PASC per liter, over 4 hours.
Where [8] appears, read: PASC, 0.1 to 0.7 mM tannic acid.
The mark [9] stands for this setting: PCS, rate from hydrolysis difference (%) at 0 and 5 hours.
[10] abbreviates: 50 g PCS, 0.25 g enzyme per liter, methyl gallate and ellagic acid 10 mM, tannic acid 1 mM.

Structures are written as SMILES. Like-named read-outs stand apart in the source and are kept apart here.

T4 sequence (P07982 22-418): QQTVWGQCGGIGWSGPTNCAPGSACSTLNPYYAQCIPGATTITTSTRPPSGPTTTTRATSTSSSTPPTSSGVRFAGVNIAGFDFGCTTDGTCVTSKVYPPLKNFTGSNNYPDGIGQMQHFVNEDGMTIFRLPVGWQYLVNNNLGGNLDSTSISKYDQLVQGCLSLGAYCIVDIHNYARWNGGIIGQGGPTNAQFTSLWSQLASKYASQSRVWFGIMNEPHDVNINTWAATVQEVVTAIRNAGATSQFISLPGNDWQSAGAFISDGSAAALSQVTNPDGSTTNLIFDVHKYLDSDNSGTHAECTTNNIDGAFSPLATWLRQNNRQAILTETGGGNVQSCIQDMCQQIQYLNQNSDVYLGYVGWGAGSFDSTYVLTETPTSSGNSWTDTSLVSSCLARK
T3 sequence (P07981 23-459): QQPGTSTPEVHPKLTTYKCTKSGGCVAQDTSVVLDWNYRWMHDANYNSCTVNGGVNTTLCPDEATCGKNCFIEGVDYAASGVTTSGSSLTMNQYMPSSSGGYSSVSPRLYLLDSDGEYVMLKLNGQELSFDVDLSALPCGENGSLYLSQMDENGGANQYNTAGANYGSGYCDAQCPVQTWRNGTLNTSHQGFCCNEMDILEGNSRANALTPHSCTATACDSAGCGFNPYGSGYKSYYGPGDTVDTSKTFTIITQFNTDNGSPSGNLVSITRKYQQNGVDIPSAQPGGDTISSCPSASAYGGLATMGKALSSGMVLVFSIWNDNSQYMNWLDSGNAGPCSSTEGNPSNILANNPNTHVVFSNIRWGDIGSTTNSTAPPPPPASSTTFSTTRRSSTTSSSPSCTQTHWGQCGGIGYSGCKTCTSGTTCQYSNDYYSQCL
T1 sequence (P62694 other isoform, or with tags, fused parts or gaps INS458P/R459P): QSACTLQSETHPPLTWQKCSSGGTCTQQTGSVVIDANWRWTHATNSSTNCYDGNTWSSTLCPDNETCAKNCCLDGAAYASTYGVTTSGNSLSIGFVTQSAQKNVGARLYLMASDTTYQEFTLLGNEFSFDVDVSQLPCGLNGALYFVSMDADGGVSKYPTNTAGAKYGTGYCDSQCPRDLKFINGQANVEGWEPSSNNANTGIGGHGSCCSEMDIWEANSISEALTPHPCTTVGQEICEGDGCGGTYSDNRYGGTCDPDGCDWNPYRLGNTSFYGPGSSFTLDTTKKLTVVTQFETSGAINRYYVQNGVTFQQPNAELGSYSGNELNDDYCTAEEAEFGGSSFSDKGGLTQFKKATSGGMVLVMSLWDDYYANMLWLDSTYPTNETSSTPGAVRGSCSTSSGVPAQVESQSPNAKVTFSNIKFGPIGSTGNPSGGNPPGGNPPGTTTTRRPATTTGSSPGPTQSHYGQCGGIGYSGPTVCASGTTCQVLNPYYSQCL
T2 sequence (P07987 25-471 P359R): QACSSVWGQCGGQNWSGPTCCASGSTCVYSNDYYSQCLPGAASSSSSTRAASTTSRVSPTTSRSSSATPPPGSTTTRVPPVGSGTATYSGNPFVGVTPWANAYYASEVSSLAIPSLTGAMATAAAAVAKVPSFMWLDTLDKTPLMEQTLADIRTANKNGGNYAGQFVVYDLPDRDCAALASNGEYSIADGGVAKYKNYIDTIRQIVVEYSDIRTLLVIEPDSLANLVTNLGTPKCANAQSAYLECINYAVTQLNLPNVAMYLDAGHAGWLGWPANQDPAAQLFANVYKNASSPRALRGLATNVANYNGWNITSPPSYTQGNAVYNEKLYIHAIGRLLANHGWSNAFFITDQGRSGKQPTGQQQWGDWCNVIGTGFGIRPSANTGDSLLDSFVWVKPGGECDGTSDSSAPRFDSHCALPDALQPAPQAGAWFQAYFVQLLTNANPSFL

With `O=C(OC[C@H]1O[C@@H](OC(=O)c2cc(O)c(O)c(OC(=O)c3cc(O)c(O)c(O)c3)c2)[C@H](OC(=O)c2cc(O)c(O)c(OC(=O)c3cc(O)c(O)c(O)c3)c2)[C@@H](OC(=O)c2cc(O)c(O)c(OC(=O)c3cc(O)c(O)c(O)c3)c2)[C@@H]1OC(=O)c1cc(O)c(O)c(OC(=O)c2cc(O)c(O)c(O)c2)c1)c1cc(O)c(O)c(OC(=O)c2cc(O)c(O)c(O)c2)c1` [tannic acid, Tannic acid], the IC50 was about 1000 µM in test [1]; 300 ± 200 µM in test [3] (PASC hydrolysis, mean ± SD, 0.04 g enzyme per liter, pH 5, 50° C., read-out: I50 for CEL7B EGI); 320 ± 50 µM in test [4] (PASC hydrolysis, mean ± SD, 0.04 g enzyme per liter, pH 5, 50° C., read-out: I50 for CEL5A EGII). For the same compound, the “effect on PASC hydrolysis by CEL7A cellobiohydrolase I” value in test [1] (setting [7]) was “significantly inhibited”. Further, the “type of inhibition (double reciprocal plots), CEL7A CBHI” value in test [1] (setting [8]) is “mixed”. The “effect on PASC hydrolysis by CEL6A cellobiohydrolase II” value in test [2] is on record as “significantly inhibited”. In test [3] (setting [7]), the “effect on PASC hydrolysis by CEL7B endoglucanase I” value is listed as “significantly inhibited”. Also, in test [3] (setting [8]), the “type of inhibition (double reciprocal plots), CEL7B EGI” value is given as “mixed”. The “effect on PASC hydrolysis by CEL5A endoglucanase II” value in test [4] (setting [7]) is “significantly inhibited”. The “type of inhibition (double reciprocal plots), CEL5A EGII” value in test [4] (setting [8]) is on record as “mixed”. The Ki – broadly, a dissociation constant, usually derived from enzyme kinetics or from competition with a known ligand – in test [5] (OPC flavonol-equivalent, read-out: Ki (x-intercept of Dixon plot)) is about 180 µM; in test [5] (corresponding galloyl constituents, read-out: Ki expressed as galloyl constituents), 1800 µM. The “Dixon plot linear regression intercept (1/Rate)” value in test [5] (setting [9]) came to 0.018±0.005. In addition, in test [5] (setting [9]), the “Dixon plot linear regression slope (1/Rate vs inhibitor concentration)” value was determined as 0.098±0.009. The “concentration dependence of inhibition of PCS hydrolysis” value in test [5] (tannic acid 0.1 mM to 1 mM, OPC 0.1 mM to 10 mM, 43 g PCS and 0.25 g enzyme per liter) was “increasingly inhibitory”. The “effect on hydrolysis of PCS by Cellulolytic Enzyme Composition #1” value in test [6] (1 mM each compound, 43.4 g PCS and 0.25 g enzyme per liter, pH 5.0, 50° C.) was “significantly inhibited”. Further, the “loss in initial rate of PCS hydrolysis” value in test [6] (setting [10]) was about 70%. In test [6] (setting [10]), the “loss in the extent of PCS hydrolysis at day 4” value is on record as about 60%.

For the origin of these results see patent US20090123979A1, “Methods of reducing the inhibitory effect of a tannin on the enzymatic hydrolysis of cellulosic material” (Novozymes, Inc., priority 2007, published 2009).
